Several values for one entry are separate records, joined by “and”; a condition that tells them apart may be missing. Equal entries are not always repeated. Where two headings read alike, the source gives them in different places.
Key:
Capan-1 (K-Ras G12V) = experiment: CellTiter-Glo cell viability assay, 5-day treatment; assay type: cell-based; details: Homo sapiens, CAPAN-1, 120 h, 5-day treatment; read-out: Capan-1 Cell Viability assay data (K-Ras G12V, IC50)
Outline: (§1)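 Luminescence read-out after 5 days of compound exposure, with plates first brought to room temperature for roughly 30 minutes. Values are percent of averaged DMSO wells, fitted by four-parameter logistic regression.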

NCI-H358 (K-Ras G12C) = experiment: as above; assay type: cell-based; details: Homo sapiens
Outline: as §1

KRAS G12C = KRAS G12C (Homo sapiens, UniProt P01116+P62937, G12C); experiment: Disruption of BRAF RBD interaction with Ras (FRET / MOA assay, with Cyclophilin A); assay type: biochemical
Outline: (§2)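 Biochemical TR-FRET disruption assay: nucleotide-loaded K-Ras with Cyclophilin A and a BRAF RBD construct, compound titrated over 10 points from 30 μM (final).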

KRAS G12D = KRAS G12D (Homo sapiens, UniProt P01116+P62937, G12D); experiment: as above; assay type: biochemical
Outline: as §2

KRAS G12S = KRAS G12S (Homo sapiens, UniProt P01116+P62937, G12S); experiment: as above; assay type: biochemical
Outline: as §2

KRAS G12V = KRAS G12V (Homo sapiens, UniProt P01116+P62937, G12V); experiment: as above; assay type: biochemical
Outline: as §2

KRAS G13C = KRAS G13C (Homo sapiens, UniProt P01116+P62937, G13C); experiment: as above; assay type: biochemical
Outline: as §2

KRAS G13D = KRAS G13D (Homo sapiens, UniProt P01116+P62937, G13D); experiment: as above; assay type: biochemical
Outline: as §2

KRAS WT = KRAS WT (Homo sapiens, UniProt P01116+P62937); experiment: as above; assay type: biochemical
Outline: as §2

NRAS G12C = NRAS G12C (Homo sapiens, UniProt P01111+P62937, G12C); experiment: as above; assay type: biochemical
[1] = NCI-H358, 120 h, 5-day treatment, read-out: H358 Cell Viability assay data (K-Ras G12C, IC50)
[2] = KRAS G12V FRET data IC50, KRAS G12V
[3] = KRAS G13D FRET data IC50, KRAS G13D
[4] = KRAS WT FRET data IC50, KRAS WT
[5] = NRAS G12C FRET data IC50, NRAS G12C
[6] = read-out: KRAS G12C FRET data, IC50
[7] = read-out: KRAS G12D FRET data, IC50
[8] = read-out: KRAS G12S FRET data, IC50
[9] = KRAS G12V, read-out: KRAS G12V FRET data IC50
[10] = read-out: KRAS G13C FRET data, IC50
[11] = KRAS G13D, read-out: KRAS G13D FRET data IC50
[12] = KRAS WT, read-out: KRAS WT FRET data IC50
[13] = NRAS G12C, read-out: NRAS G12C FRET data IC50
[14] = NCI-H358, H358, K-Ras G12C, read-out: Additional H358 Cell Viability assay data (K-Ras G12C, IC50)
[15] = KRAS G12C, read-out: KRAS G12C FRET data IC50
[16] = KRAS G13C, read-out: KRAS G13C FRET data IC50

Sequence of KRAS G12S (P01116 1-169 isoform P01116-2 G12S limits assumed): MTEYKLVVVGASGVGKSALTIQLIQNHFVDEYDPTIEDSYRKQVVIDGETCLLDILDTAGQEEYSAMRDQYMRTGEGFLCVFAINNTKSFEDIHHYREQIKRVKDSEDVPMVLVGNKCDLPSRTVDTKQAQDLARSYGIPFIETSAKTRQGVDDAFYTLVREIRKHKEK
Sequence of KRAS G12S (P62937 whole entry): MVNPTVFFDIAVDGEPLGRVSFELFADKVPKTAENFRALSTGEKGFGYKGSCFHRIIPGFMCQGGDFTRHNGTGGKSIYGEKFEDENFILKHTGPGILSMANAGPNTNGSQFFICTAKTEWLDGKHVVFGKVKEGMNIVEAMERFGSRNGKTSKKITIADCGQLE
Sequence of KRAS WT (P01116 1-169 isoform P01116-2 limits assumed): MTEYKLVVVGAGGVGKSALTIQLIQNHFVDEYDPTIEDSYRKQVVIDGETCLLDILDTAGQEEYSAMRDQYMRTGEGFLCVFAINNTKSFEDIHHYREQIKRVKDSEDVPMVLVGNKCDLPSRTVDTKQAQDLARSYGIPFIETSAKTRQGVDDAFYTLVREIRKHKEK
Sequence of KRAS WT (P62937 whole entry): as the sequence (P62937 whole entry) above
Sequence of KRAS G12V (P01116 1-169 isoform P01116-2 G12V limits assumed): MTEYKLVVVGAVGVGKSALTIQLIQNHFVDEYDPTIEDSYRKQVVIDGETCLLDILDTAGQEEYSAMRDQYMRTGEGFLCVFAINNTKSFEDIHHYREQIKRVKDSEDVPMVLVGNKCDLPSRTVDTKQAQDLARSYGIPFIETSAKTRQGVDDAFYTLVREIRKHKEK
Sequence of KRAS G12V (P62937 whole entry): as the sequence (P62937 whole entry) above
Sequence of KRAS G13D (P01116 1-169 isoform P01116-2 G13D limits assumed): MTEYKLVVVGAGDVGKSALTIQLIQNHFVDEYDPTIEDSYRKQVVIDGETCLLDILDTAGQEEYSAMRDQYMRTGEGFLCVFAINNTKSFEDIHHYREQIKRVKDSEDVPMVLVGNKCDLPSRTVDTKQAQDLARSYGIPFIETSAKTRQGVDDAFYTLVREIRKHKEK
Sequence of KRAS G13D (P62937 whole entry): as the sequence (P62937 whole entry) above
Sequence of KRAS G12C (P01116 1-169 isoform P01116-2 G12C): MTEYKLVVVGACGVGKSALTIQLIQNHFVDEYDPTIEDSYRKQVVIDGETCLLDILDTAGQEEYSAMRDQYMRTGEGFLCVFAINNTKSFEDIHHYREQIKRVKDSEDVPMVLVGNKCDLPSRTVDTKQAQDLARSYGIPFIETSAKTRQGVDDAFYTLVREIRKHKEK
Sequence of KRAS G12C (P62937 whole entry): as the sequence (P62937 whole entry) above
Sequence of NRAS G12C (P01111 whole entry G12C): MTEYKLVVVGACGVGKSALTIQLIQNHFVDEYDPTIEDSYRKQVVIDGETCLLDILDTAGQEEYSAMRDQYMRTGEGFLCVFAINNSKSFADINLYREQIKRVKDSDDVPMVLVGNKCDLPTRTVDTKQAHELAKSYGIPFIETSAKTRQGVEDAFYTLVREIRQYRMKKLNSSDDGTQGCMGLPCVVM
Sequence of NRAS G12C (P62937 whole entry): as the sequence (P62937 whole entry) above
Sequence of KRAS G13C (P01116 1-169 isoform P01116-2 G13C): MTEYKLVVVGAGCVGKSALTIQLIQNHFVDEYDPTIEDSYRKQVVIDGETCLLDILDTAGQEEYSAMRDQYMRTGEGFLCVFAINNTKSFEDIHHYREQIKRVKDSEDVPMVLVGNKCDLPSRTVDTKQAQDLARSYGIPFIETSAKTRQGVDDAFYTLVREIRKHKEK
Sequence of KRAS G13C (P62937 whole entry): as the sequence (P62937 whole entry) above
Sequence of KRAS G12D (P01116 1-169 isoform P01116-2 G12D limits assumed): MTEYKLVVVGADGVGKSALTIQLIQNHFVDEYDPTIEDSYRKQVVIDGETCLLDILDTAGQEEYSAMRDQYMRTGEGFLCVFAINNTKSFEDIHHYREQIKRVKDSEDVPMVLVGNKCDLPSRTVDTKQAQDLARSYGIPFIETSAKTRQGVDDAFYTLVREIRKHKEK
Sequence of KRAS G12D (P62937 whole entry): as the sequence (P62937 whole entry) above

Row | Compound | IC50 (NCI-H358 (K-Ras G12C); [1]) | IC50 (KRAS G12C; [6]) | IC50 (KRAS G12D; [7]) | IC50 (KRAS G12S; [8]) | IC50 (KRAS G12V; [9]) | IC50 (KRAS G13C; [10]) | IC50 (KRAS G13D; [11]) | IC50 (KRAS WT; [12]) | IC50 (NRAS G12C; [13]) | further results
1 | CCn1c(-c2cnccc2COC)c2c3cc(ccc31)-c1cc(O)cc(c1)C[C@H](NC(=O)[C@H](C(C)C)N(C)C(=O)[C@H]1CCN(C(=O)C(C)(C)N(C)C)C1)C(=O)N1CCC[C@H](N1)C(=O)OCC(C)(C)C2 [Example A8] |  |  |  |  |  |  |  |  |  | IC50 (Capan-1 (K-Ras G12V)): 1000 to 10000 nM
2 | CCn1c(-c2cnccc2COC)c2c3cc(ccc31)-c1cc(O)cc(c1)C[C@H](NC(=O)[C@H](C(C)C)N(C)C(=O)[C@H]1CCN(C(=O)N(C)C)C1)C(=O)N1CCC[C@H](N1)C(=O)OCC(C)(C)C2 [Example A42, (3S)-N3-[(1S)-1-{[(8S,14S)-22-ethyl-4-hydroxy-21-[4-(methoxymethyl)pyridin-3-yl]-18,18-dimethyl-9,15-dioxo-16-oxa-10,22,28-triazapentacyclo[18.5.2.1^2,6.1^10,14.0^23,27]nonacosa-1(26),2,4,6(29),20,23(27),24-heptaen-8-yl]carbamoyl}-2-methylpropyl]-N1,N1,N3-trimethylpyrrolidine-1,3-dicarboxamide] | 1000 to 10000 nM |  |  |  |  |  |  |  |  | IC50 (KRAS G12C; KRAS G12C FRET data, IC50): 100 to 1000 nM; IC50 (KRAS G12D; KRAS G12D FRET data, IC50): > 10000 nM; IC50 (KRAS G12S; KRAS G12S FRET data, IC50): 1000 to 10000 nM; IC50 (KRAS G12V; [2]): 1000 to 10000 nM; IC50 (KRAS G13C; KRAS G13C FRET data, IC50): 1000 to 10000 nM; IC50 (KRAS G13D; [3]): 1000 to 10000 nM; IC50 (KRAS WT; [4]): 1000 to 10000 nM; IC50 (NRAS G12C; [5]): 1000 to 10000 nM
3 | CCn1c(-c2cnccc2COC)c2c3cc(ccc31)-c1cc(O)cc(c1)C[C@H](NC(=O)[C@H](C(C)C)N1CCCCC1=O)C(=O)N1CCC[C@H](N1)C(=O)OCC(C)(C)C2 [Example A44] | 1000 to 10000 nM | 100 to 1000 nM | 1000 to 10000 nM | 1000 to 10000 nM | 100 to 1000 nM | 1000 to 10000 nM | 1000 to 10000 nM | 100 to 1000 nM | 100 to 1000 nM | 
4 | CCn1c(-c2cnccc2COC)c2c3cc(ccc31)-c1cc(O)cc(c1)C[C@H](NC(=O)[C@H](C(C)C)N(C)C(=O)OC1CCOC1)C(=O)N1CCC[C@H](N1)C(=O)OCC(C)(C)C2 (stereo partly drawn) [Example A50, oxolan-3-yl-N-[(1S)-1-{[(8S,14S)-22-ethyl-4-hydroxy-21-[4-(methoxymethyl)pyridin-3-yl]-18,18-dimethyl-9,15-dioxo-16-oxa-10,22,28-triazapentacyclo[18.5.2.1^2,6.1^10,14.0^23,27]nonacosa-1(26),2,4,6(29),20,23(27),24-heptaen-8-yl]carbamoyl}-2-methylpropyl]-N-methylcarbamate] | 1000 to 10000 nM |  |  |  |  |  |  |  |  | IC50 (KRAS G12C; KRAS G12C FRET data, IC50): 100 to 1000 nM; IC50 (KRAS G12D; KRAS G12D FRET data, IC50): 1000 to 10000 nM; IC50 (KRAS G12S; KRAS G12S FRET data, IC50): 1000 to 10000 nM; IC50 (KRAS G12V; [2]): 1000 to 10000 nM; IC50 (KRAS G13C; KRAS G13C FRET data, IC50): 1000 to 10000 nM; IC50 (KRAS G13D; [3]): 1000 to 10000 nM; IC50 (KRAS WT; [4]): 100 to 1000 nM; IC50 (NRAS G12C; [5]): 1000 to 10000 nM
5 | CCn1c(-c2cnccc2COC)c2c3cc(ccc31)-c1cc(O)cc(c1)C[C@H](NC(=O)[C@@H](OC(=O)N(C)C)C(C)C)C(=O)N1CCC[C@H](N1)C(=O)OCC(C)(C)C2 [Example A53] | 1000 to 10000 nM | 100 to 1000 nM | > 10000 nM | 1000 to 10000 nM | 1000 to 10000 nM | 1000 to 10000 nM | 1000 to 10000 nM | 1000 to 10000 nM | 1000 to 10000 nM | 
6 | CCn1c(-c2cccnc2[C@H](C)OC)c2c3cc(ccc31)-c1cccc(c1)C[C@H](NC(=O)[C@H](C(C)C)N(C)C(=O)[C@H]1CCN(C(C)=O)C1)C(=O)N1CCC[C@H](N1)C(=O)OCC(C)(C)C2 [Example A60] | 1000 to 10000 nM | 1000 to 10000 nM | > 10000 nM | 1000 to 10000 nM | 1000 to 10000 nM | > 10000 nM | > 10000 nM | 1000 to 10000 nM | 1000 to 10000 nM | 
7 | CCn1c(-c2cnccc2COC)c2c3cc(ccc31)-c1cc(O)cc(c1)C[C@H](NC(=O)[C@H](C(C)C)N(C)C(=O)CN1CCOCC1)C(=O)N1CCC[C@H](N1)C(=O)OCC(C)(C)C2 [Example A65] | 1000 to 10000 nM | 100 to 1000 nM | 1000 to 10000 nM | 100 to 1000 nM | 1000 to 10000 nM | 100 to 1000 nM | 100 to 1000 nM | 100 to 1000 nM | 100 to 1000 nM | 
8 | CCn1c(-c2cccnc2[C@H](C)OC)c2c3cc(ccc31)-c1csc(n1)C[C@H](NC(=O)[C@H](C(C)C)N(C)C(=O)[C@H]1CCN(C(=O)OC)C1)C(=O)N1CCC[C@H](N1)C(=O)OCC(C)(C)C2 [Example A116] | 100 to 1000 nM | 1000 to 10000 nM and > 10000 nM | > 10000 nM | 1000 to 10000 nM and > 10000 nM | 1000 to 10000 nM and > 10000 nM | 1000 to 10000 nM and > 10000 nM | 1000 to 10000 nM and > 10000 nM | 1000 to 10000 nM and > 10000 nM | 1000 to 10000 nM and > 10000 nM | 
9 | CCn1c(-c2cccnc2[C@H](C)OC)c2c3cc(ccc31)-c1cc(O)cc(c1)C[C@H](NC(=O)C1CCCC1C(F)F)C(=O)N1CCC[C@H](N1)C(=O)OCC(C)(C)C2 (stereo partly drawn) [Example A254] | 1000 to 10000 nM | 100 to 1000 nM | 1000 to 10000 nM | 100 to 1000 nM | 100 to 1000 nM | 100 to 1000 nM | 100 to 1000 nM | 100 to 1000 nM | 100 to 1000 nM | 
10 | C=CC(=O)N1CC[C@H](C(=O)N(C)[C@H](C(=O)N[C@H]2Cc3nc(cs3)-c3ccc4c(c3)c(c(-c3cccnc3[C@H](C)OC)n4CC)CC(C)(C)CN(C)C[C@@H]3CCCN(N3)C2=O)C(C)C)C1 [Example A287] |  |  | > 10000 nM | > 10000 nM | > 10000 nM |  | > 10000 nM | > 10000 nM | > 10000 nM | IC50 (NCI-H358 (K-Ras G12C); [14]): > 1000 nM; IC50 (KRAS G12C; [15]): > 10000 nM; IC50 (KRAS G13C; [16]): > 10000 nM
11 | C=CC(=O)N1C[C@@H](C(=O)N(C)[C@H](C(=O)N[C@H]2Cc3cccc(c3)-c3ccc4c(c3)c(c(-c3cccnc3[C@H](C)OC)n4CC)CC(C)(C)COC(=O)[C@@H]3CCCN(N3)C2=O)C(C)C)[C@@H](C(F)(F)F)C1 [Example A401] |  |  | > 10000 nM | 1000 to 10000 nM | 1000 to 10000 nM |  | 1000 to 10000 nM | 1000 to 10000 nM | 1000 to 10000 nM | IC50 (NCI-H358 (K-Ras G12C); [14]): 100 to 1000 nM; IC50 (KRAS G12C; [15]): 1000 to 10000 nM; IC50 (KRAS G13C; [16]): 100 to 1000 nM
12 | CCn1c(-c2cc(N3CCN(C)CC3)cnc2[C@H](C)OC)c2c3cc(ccc31)-c1csc(n1)C[C@H](NC(=O)[C@H](C(C)C)N(C)C(=O)N1CC(OC)C1)C(=O)N1CCC[C@H](N1)C(=O)OCC(C)(C)C2 [Example A466] |  |  |  |  |  |  |  |  |  | IC50 (Capan-1 (K-Ras G12V)): < 10 nM
13 | CCn1c(-c2cccnc2[C@H](C)OC)c2c3cc(ccc31)-c1csc(n1)C[C@H](NC(=O)[C@H](C(C)C)N(C)C(=O)N1CC(Cc3cnn(C)c3)C1)C(=O)N1CCC[C@H](N1)C(=O)OCC(C)(C)C2 [Example A500] |  |  |  |  |  |  |  |  |  | IC50 (Capan-1 (K-Ras G12V)): < 10 nM

Source: patent US20230233569A1 (Revolution Medicines, Inc., priority 2020, published 2023)
